Data published in patent publication US20250276960A1, “CRYSTALLINE FORMS OF (R)-6-CHLORO-3-((1-(2-CYANO-7-METHYL-3-MORPHOLINOQUINOXALIN-5-YL)ETHYL)AMINO)PICOLINIC ACID” (MIRATI THERAPEUTICS, INC., priority 2024, published 2025).
Values after ≈ are worked out from the molar mass of the structure shown.

How the values were obtained:
[1] = Solubility of amorphous solids of Compound 1 in single solvents at room temperature; assay type: physicochemical
Experimental: The amorphous solids of Compound 1 as prepared in Example 1 was measured in 20 single solvents at room temperature and crystallization screening was then conducted in the same set of solvents. For each solvent tested, a slurry of the amorphous solids and the solvent was prepared with a […] and the amorphous solids were allowed to dissolve. The slurry was then agitated with a stir bar for approximately 1 hour at room temperature. The wet solids were then analyzed by powder X-ray diffraction (PXRD). The solids were collected and dried under vacuum for 1 day and the crystalline form was confirmed by PXRD. Only one crystalline form was obtained and designated as Form 1.

[2] = Dynamic vapor sorption (DVS) of crystalline form; assay type: physicochemical; conditions: crystalline form (Form 1)
Experimental: (§1) The crystalline form of Compound 1 is highly crystalline and has a needle/thin rod-like morphology. FIG. 2A and 2B are polarized light microscopy (PLM) images of this crystalline form of Compound 1. Additionally, the crystalline form of Compound 1 was characterized by PXRD, DSC, TGA, ^1H-NMR, HPLC, and DVS. The solvent used for the ^1H-NMR was methanol.
(§2) The crystalline form has a high melting temperature (˜177-180° C.) with no thermal degradation until >210° C. The crystalline form appears to be an anhydrous form and is non-hygroscopic. The crystalline form was analyzed by PXRD before and after DVS.

[3] = tested on: phospho-AKT (pAKT) in T47D (H1047R) cells; test: pAKT alphaLISA Surefire Ultra AKT 1/2/3 (pS473) assay in T47D cells; assay type: cell-based; conditions: Homo sapiens, 24 hr treatment
Experimental: (§3) The ability of a Compound 1 to inhibit the formation of pAKT was measured using alphaLISA Surefire Ultra AKT 1/2/3 (pS473) Assay Kit (#ALSU-PAKT-B50K) was obtained from Perkin Elmer (Waltham, MA). The ability of Compound 1 to decrease the viability of cells was measured using CellTiter-Glo 2.0 (CTG) Luminescent Cell Viability Assay (#G9241) obtained from Promega (Madison, WI).
To prepare assay plates for pAKT alphaLISA assays, cells were trypsinized, resuspended in fresh media, and viable cells were counted utilizing trypan blue exclusion. Prior to seeding, cells were washed with PBS and resuspended in HBSS (Gibco, #14025092). […]
Immediately after seeding, cells were dosed using an Echo Liquid Handler (Beckman Coulter) with compounds at a 10.4 μm starting concentration and serially diluted (1:4) for a total of 10concentrations. […] Plates were then imaged the following day using a CLARIOstar microplate reader (BMG Labtech, Germany).
Percent of control values were calculated by subtracting the average signal from the positive control (alpelisib) treated wells from all treated wells (including DMSO control wells) and then divided by the average signal from the vehicle DMSO treated control wells. Percent of vehicle control values were plotted as log (inhibitor) vs. response-Variable slope (four parameters) for curve fitting and IC50 values were determined using XLfit.

[4] = tested on: T47D (H1047R mutant) cells; test: CellTiter-Glo 2.0 cell viability assay, T47D; assay type: cell-based; conditions: Homo sapiens, 72 hours, CTG
Experimental: as §3
To prepare assay plates for viability assays, cells were trypsinized, resuspended in fresh media, and viable cells were counted utilizing trypan blue exclusion. […]
Assay day 1, cells were dosed using an Echo Liquid Handler (Beckman Coulter) with compounds at a 10 μm starting concentration and serially diluted (1:4) for a total of 10concentrations. […] After 72 hours of treatment, cell plates were equilibrated to room temperature before adding 15 μl of CTG to each well, plates were then covered in aluminum foil to protect from light, incubated at room temperature for 30 minutes on a microtiter plate shaker, and luminescence readings were collected using a CLARIOstar microplate reader (BMG Labtech, Germany). Percent of vehicle control values were plotted as log (inhibitor) vs. response-Variable slope (four parameters) for curve fitting and IC50 values were determined using XLfit.

[5] = Thermal stability (DSC/TGA) of crystalline form; assay type: physicochemical; conditions: crystalline form (Form 1)
Experimental: as §1, §2

Cc1cc([C@@H](C)Nc2ccc(Cl)nc2C(=O)O)c2nc(N3CCOCC3)c(C#N)nc2c1 [Compound 1, (R)-6-chloro-3-((1-(2-cyano-7-methyl-3-morpholinoquinoxalin-5-yl)ethyl)amino) picolinic acid]
solubility ([1]; organic solvent or mixture, thermodynamic from solid, 1,4-Dioxane): > 221 mg/mL
solubility ([1]; organic solvent or mixture, thermodynamic from solid, 2-MeTHF): > 230 mg/mL
solubility ([1]; organic solvent or mixture, thermodynamic from solid, ACN): > 202 mg/mL
solubility ([1]; organic solvent or mixture, thermodynamic from solid, DCM): > 192 mg/mL
solubility ([1]; organic solvent or mixture, thermodynamic from solid, DMF): > 216 mg/mL
solubility ([1]; organic solvent or mixture, thermodynamic from solid, DMSO): > 241 mg/mL
solubility ([1]; organic solvent or mixture, thermodynamic from solid, EtOAc): > 204 mg/mL
solubility ([1]; organic solvent or mixture, thermodynamic from solid, EtOH): 43 to 53.7 mg/mL (≈ 94.9 to 119 mM)
solubility ([1]; organic solvent or mixture, thermodynamic from solid, IPA): 14.4 to 16.8 mg/mL (≈ 31.8 to 37.1 mM)
solubility ([1]; organic solvent or mixture, thermodynamic from solid, IPAc): > 221 mg/mL
solubility ([1]; organic solvent or mixture, thermodynamic from solid, MEK): > 191 mg/mL
solubility ([1]; organic solvent or mixture, thermodynamic from solid, MIBK): > 189 mg/mL
solubility ([1]; organic solvent or mixture, thermodynamic from solid, MTBE): 102 to 221 mg/mL (≈ 226 to 488 mM)
solubility ([1]; organic solvent or mixture, thermodynamic from solid, MeOH): > 210 mg/mL
solubility ([1]; organic solvent or mixture, thermodynamic from solid, THF): > 215 mg/mL
solubility ([1]; organic solvent or mixture, thermodynamic from solid, acetone): > 230 mg/mL
solubility ([1]; organic solvent or mixture, thermodynamic from solid, heptane): < 1.3 mg/mL
solubility ([1]; organic solvent or mixture, thermodynamic from solid, nPA): 47.1 to 58.9 mg/mL (≈ 104 to 130 mM)
solubility ([1]; organic solvent or mixture, thermodynamic from solid, toluene): > 204 mg/mL
solubility ([1]; thermodynamic from solid, water): < 1.3 mg/mL
Form change by PXRD before and after DVS [2]: no form change
Hygroscopicity (DVS) [2]: non-hygroscopic
DVS weight gain at 80% RH ([2]; 80% RH): 0.11%
IC50 [3]: 1.8 nM
IC50 [4]: 24 nM
Temperature until which no thermal degradation [5]: > 210 °C
